Results reported in PMC6222820, “Synthesis of New Triarylpyrazole Derivatives Possessing Terminal Sulfonamide Moiety and Their Inhibitory Effects on PGE2 and Nitric Oxide Productions in Lipopolysaccharide-Induced RAW 264.7 Macrophages” (Molecules : A Journal of Synthetic Chemistry and Natural …, 2018).
“Also recorded” adds a separate entry of the source.

Columns and labels:
[1] = test system: LPS-induced RAW 264.7 macrophages; test: Nitric oxide (NO) production inhibition in LPS-induced RAW 264.7 macrophages (nitrite determination); format: cell-based; conditions: for inhibition at 1 µM: RAW264.7, 1 µM; for inhibition at 1 µM / inhibition at 5 µM / inhibition at 10 µM: LPS-induced RAW 264.7 macrophages; for inhibition at 5 µM: RAW264.7, 5 µM; for inhibition at 10 µM: RAW264.7, 10 µM; for IC50: means ± SD of three independent experiments, read-out: NO (IC50)
Protocol: The ability of a certain molecule to inhibit the production of inflammatory mediator(s) is one of successful approach to treatment both chronic and acute inflammation.
(§1) Cell culture and sample treatment were performed as reported in the literature. The 3-(4,5-dimethylthiazol-2-yl)-2,5-diphenyltetrazolium bromide (MTT) assay for cell viability followed the procedure previously described in the literature. Nitrite determination was carried as described in the literature, and the PGE2 assay was carried as previously described.

[2] = test system: inducible nitric oxide synthase (iNOS); test: LPS-induced iNOS protein expression (SDS-PAGE / immunoblot of cellular lysates); format: cell-based; conditions: 20 µM; pretreatment 1 h, then LPS (1 μg/mL) 24 h; β-actin reference
Protocol: As a result of their activity against both NO and PGE2 production and low cellular toxicity, compounds 1b, 1d, 1g, 2a, and 2c were tested for their inhibitory effect on the expression of both iNOS and COX-2. The cellular lysates were prepared from the with- and without-pretreatment tested compounds (5, 10, 20 μM) for one hour and then with LPS (1 μg/mL) for 24 h, using β-actin as a reference. […] Compound 1g might express its inhibitory effect on NO production mainly through inhibition of iNOS protein expression and partially through inhibition of iNOS enzyme activity.
Figure 3 Inhibitory activity of compounds 1b, 1d, 1g, 2a, and 2c on inducible nitric oxide synthase (iNOS) and Cyclooxygenase 2 (COX-2) Cellular lysates were prepared from the with/without pretreatment tested compound (5, 10, and 20 μM) for one hour and then with LPS (1 μg/mL) for 24 h. Total cellular proteins were resolved by sodium dodecyl sulphate-polyacrylamide gel electrophoresis (SDS-PAGE), transferred to Polyvinylidene fluoride (PVDF) membranes, and detected with specific iNOS and COX-2 antibodies. β-actin was used as an internal control.

[3] = target: T1, iNOS (Mus musculus, UniProt P29477); test: iNOS enzyme activity in LPS-pretreated cells (Griess reaction); format: cell-based; conditions: 5, 10, or 20 μM for 12 h after LPS (1 µg/mL) 12 h
T1 construct: endogenous in cells; host or cells: RAW 264.7 macrophages, LPS-stimulated
Protocol: Figure 4 Effect of compounds 1b, 1d, 1g, 2a, and 2c on iNOS activity. Following pretreatment with lipopolysaccharide (LPS, 1 µg/mL) for 12 h and wash with phosphate buffer solution (PBS), cells were treated with 1g (5, 10, or 20 μM) for 12 h N^6-(1-Iminoethyl)-L-lysine. (L-NIL) (40 μM) was used as the positive control in the assay. Levels of NO in culture media were quantified using the Griess reaction assay. Data are presented as the means ± SD of three independent experiments. # p < 0.05 versus the control cells; *** p < 0.001 versus LPS-stimulated cells; * statistical significances were compared using ANOVA and Dunnett’s post hoc test.

[4] = MTT assay for cell viability / cytotoxicity; format: cell-based; conditions: mouse, RAW 264.7 macrophages, means ± SD of three independent experiments
Protocol: In addition to NO inhibition, the cytotoxic activity of compounds 1a–i, 2a–i, 3a–h, and 4a–h in RAW 264.7 macrophages were measured using the 3-(4,5-dimethylthiazol-2-yl)-2,5-diphenyltetrazolium bromide (MTT) assay to check whether the effects on the production of NO was caused by nonspecific cytotoxicity.
as §1

[5] = test system: LPS-induced RAW 264.7 macrophages; test: PGE2 production inhibition in LPS-induced RAW 264.7 macrophages; format: cell-based; conditions: means ± SD of three independent experiments; for inhibition at 1 µM: RAW264.7, 1 μM; for inhibition at 5 µM: RAW264.7, 5 μM; for inhibition at 10 µM: RAW264.7, 10 μM
Protocol: Compounds 1b, 1g, 2a, and 2c were able to inhibit more than 50% of the prostaglandin production at a dose 5 μM. The five compounds were able to reduce PGE2 production by over 75% at a dose of 10 μM.
as §1

[6] = Mus musculus, RAW264.7, nitric oxide production
[7] = Mus musculus, RAW264.7, LPS-induced RAW 264.7 macrophages

| Compound | IC50 [1, 6] | melting point | IC50 ([5]; LPS-induced RAW 264.7 macrophages) | IC50 [5, 7] | IC50 ([1]; nitric oxide production) | inhibition at 1 µM ([1]; Mus musculus) | inhibition at 5 µM ([1]; Mus musculus) | inhibition at 10 µM ([1]; Mus musculus) | Inhibition of iNOS expression [2] | Inhibition of iNOS enzyme activity [3] | IC50 [4] | inhibition at 1 µM ([5]; Mus musculus) | inhibition at 5 µM ([5]; Mus musculus) | inhibition at 10 µM ([5]; Mus musculus) |
| --- | --- | --- | --- | --- | --- | --- | --- | --- | --- | --- | --- | --- | --- | --- |
| COc1cccc(-c2nn(-c3ccccc3)cc2-c2ccnc(NCCCNS(=O)(=O)c3ccc(Cl)cc3)c2)c1 [Compound 2c, 4-Chloro-N-(3-((4-(3-(3-methoxyphenyl)-1-phenyl-1H-pyrazol-4-yl)pyridin-2-yl)amino)propyl)benzenesulfonamide] | 8.68 ± 0.22 µM | 98 to 100 °C |  | 4.68 ± 0.37 µM |  | 0.02 ± 0.01% | 24.7 ± 0.81% | 59.1 ± 0.93% |  |  | 289.9 ± 1.87 µM | 17.5 ± 1.51% | > 50% | 81.4 ± 2.94% |
| O=S(=O)(NCCNc1cc(-c2cn(-c3ccccc3)nc2-c2cccc(O)c2)ccn1)c1ccc(F)cc1 [Compound 3d, 4-Fluoro-N-(2-((4-(3-(3-hydroxyphenyl)-1-phenyl-1H-pyrazol-4-yl)pyridin-2-yl)amino)ethyl)benzenesulfonamide] | 10.7 ± 0.52 µM | 106 to 108 °C |  |  |  | 10.58 ± 0.09% | 18.3 ± 0.26% | 48.2 ± 0.74% |  |  | 26.6 ± 0.47 µM |  |  |  |
| Cc1ccc(S(=O)(=O)NCCNc2cc(-c3cn(-c4ccccc4)nc3-c3cccc(O)c3)ccn2)cc1 [Compound 3e, N-(2-((4-(3-(3-Hydroxyphenyl)-1-phenyl-1H-pyrazol-4-yl)pyridin-2-yl)amino)ethyl)-4-methylbenzenesulfonamide] | 16.1 ± 0.72 µM | 114 to 116 °C |  |  |  | 7.15 ± 0.04% | 12.4 ± 0.72% | 31.4 ± 0.33% |  |  | 32.5 ± 0.75 µM |  |  |  |
| O=S(=O)(NCCNc1cc(-c2cn(-c3ccccc3)nc2-c2cccc(O)c2)ccn1)c1cccc(F)c1 [Compound 3g, 3-Fluoro-N-(2-((4-(3-(3-hydroxyphenyl)-1-phenyl-1H-pyrazol-4-yl)pyridin-2-yl)amino)ethyl)benzenesulfonamide] | 21.42 ± 0.17 µM | 146 to 148 °C |  |  |  | 16.2 ± 0.17% | 19.1 ± 0.89% | 37.7 ± 0.85% |  |  | 28.7 ± 0.74 µM |  |  |  |
| O=S(=O)(NCCCNc1cc(-c2cn(-c3ccccc3)nc2-c2cccc(O)c2)ccn1)c1ccccc1 [Compound 4a, N-(3-((4-(3-(3-Hydroxyphenyl)-1-phenyl-1H-pyrazol-4-yl)pyridin-2-yl)amino)propyl)benzenesulfonamide] | 8.86 ± 0.36 µM | 154 to 156 °C |  |  |  | 11.11 ± 0.1% | 24.1 ± 0.56% | 59.2 ± 1.31% |  |  | 16.6 ± 0.91 µM |  |  |  |
| O=S(=O)(NCCCNc1cc(-c2cn(-c3ccccc3)nc2-c2cccc(O)c2)ccn1)c1ccc(Cl)cc1 [Compound 4c, 4-Chloro-N-(3-((4-(3-(3-hydroxyphenyl)-1-phenyl-1H-pyrazol-4-yl)pyridin-2-yl)amino)propyl)benzenesulfonamide] | 13.2 ± 0.52 µM | 166 to 168 °C |  |  |  | 0.86 ± 0.09% | 22 ± 0.42% | 47 ± 1.34% |  |  | 18.8 ± 0.68 µM |  |  |  |
| Cc1ccc(S(=O)(=O)NCCCNc2cc(-c3cn(-c4ccccc4)nc3-c3cccc(O)c3)ccn2)cc1 [Compound 4e, N-(3-((4-(3-(3-Hydroxyphenyl)-1-phenyl-1H-pyrazol-4-yl)pyridin-2-yl)amino)propyl)-4-methylbenzenesulfonamide] | 8.82 ± 0.32 µM | 158 to 160 °C |  |  |  | 0.69 ± 0.01% | 18.6 ± 0.98% | 59.7 ± 0.7% |  |  | 23 ± 0.63 µM |  |  |  |
| CS(=O)(=O)Nc1ccc([N+](=O)[O-])cc1OC1CCCCC1 [NS-398, N-(2-cyclohexyloxy-4-nitrophenyl)methanesulfonamide, reference compound] |  |  |  | 0.00625 µM |  |  |  |  |  |  |  | 90.53 ± 0.53% | 95.78 ± 0.67% | 98.2 ± 1.5% |

More lines, in order of falling IC50 [1, 6], values ahead:

| IC50 [1, 6] | melting point | IC50 ([5]; LPS-induced RAW 264.7 macrophages) | IC50 [5, 7] | IC50 ([1]; nitric oxide production) | Compound | inhibition at 1 µM ([1]; Mus musculus) | inhibition at 5 µM ([1]; Mus musculus) | inhibition at 10 µM ([1]; Mus musculus) | Inhibition of iNOS expression [2] | Inhibition of iNOS enzyme activity [3] | IC50 [4] | inhibition at 1 µM ([5]; Mus musculus) | inhibition at 5 µM ([5]; Mus musculus) | inhibition at 10 µM ([5]; Mus musculus) |
| --- | --- | --- | --- | --- | --- | --- | --- | --- | --- | --- | --- | --- | --- | --- |
| 8.55 ± 0.14 µM |  |  | 4.55 ± 0.39 µM |  | COc1cccc(-c2nn(-c3ccccc3)cc2-c2ccnc(NCCNS(=O)(=O)c3ccc(C(F)(F)F)cc3)c2)c1 [Compound 1g, N-(2-((4-(3-(3-Methoxyphenyl)-1-phenyl-1H-pyrazol-4-yl)pyridin-2-yl)amino)ethyl)-4-(trifluoromethyl)benzenesulfonamide] | 10.98 ± 0.07% | 23.6 ± 0.54% | 60.8 ± 1.75% | complete inhibition; also recorded: potential iNOS inhibitory effect | slightly inhibited iNOS enzyme activity in a dose-dependent manner | 261.6 ± 1.57 µM | 19.9 ± 0.89% | > 50% | 79.3 ± 2.19% |
| 8.24 ± 0.41 µM | 120 to 122 °C |  |  |  | O=S(=O)(NCCCNc1cc(-c2cn(-c3ccccc3)nc2-c2cccc(O)c2)ccn1)c1cccc(F)c1 [Compound 4g, 3-Fluoro-N-(3-((4-(3-(3-hydroxyphenyl)-1-phenyl-1H-pyrazol-4-yl)pyridin-2-yl)amino)propyl)benzenesulfonamide] |  | 29.5 ± 0.86% | 51.1 ± 1.45% |  |  | 9.35 ± 0.32 µM |  |  |  |
| 8.2 µM | 155 to 156 °C |  | 5.06 ± 0.21 µM | 8.23 ± 0.32 µM | COc1cccc(-c2nn(-c3ccccc3)cc2-c2ccnc(NCCNS(=O)(=O)c3ccc(F)cc3)c2)c1 [Compound 1d, 4-Fluoro-N-(2-((4-(3-(3-methoxyphenyl)-1-phenyl-1H-pyrazol-4-yl)pyridin-2-yl)amino)ethyl)benzenesulfonamide] | 19.79 ± 0.14% | 29.4 ± 0.77% | 61.3 ± 1.33% | partial inhibitory effect; also recorded: potential iNOS inhibitory effect | slightly inhibited iNOS enzyme activity in a dose-dependent manner | 169.2 ± 1.64 µM | 10.3 ± 0.81% | 49.6 ± 1.25% | 85.8 ± 2.64% |
| 8.04 ± 0.09 µM | 119 to 120 °C |  | 4.87 ± 0.44 µM |  | COc1cccc(-c2nn(-c3ccccc3)cc2-c2ccnc(NCCCNS(=O)(=O)c3ccccc3)c2)c1 [Compound 2a, N-(3-((4-(3-(3-Methoxyphenyl)-1-phenyl-1H-pyrazol-4-yl)pyridin-2-yl)amino)propyl)benzenesulfonamide] | 0.17 ± 0.03% | 30.2 ± 0.27% | 62.8 ± 3.25% |  |  | 346 ± 4.21 µM | 31.1 ± 1.14% | > 50% | 76.9 ± 4.99% |
| 7.9 ± 0.41 µM | 136 to 138 °C | 4.75 ± 0.25 µM | 4.72 µM |  | COc1cccc(-c2nn(-c3ccccc3)cc2-c2ccnc(NCCNS(=O)(=O)c3ccc(Br)cc3)c2)c1 [Compound 1b, 4-Bromo-N-(2-((4-(3-(3-methoxyphenyl)-1-phenyl-1H-pyrazol-4-yl)pyridin-2-yl)amino)ethyl)benzenesulfonamide] | 12.05 ± 0.11% | 24.2 ± 0.98% | 68.7 ± 2.47% | partial inhibitory effect; also recorded: potential iNOS inhibitory effect | slightly inhibited iNOS enzyme activity in a dose-dependent manner | 254.2 ± 2.54 µM | 16.2 ± 0.79% | > 50% | 76.9 ± 1.34% |
